Data published in US20230129359A1, “MUSCARINIC RECEPTOR 4 ANTAGONISTS AND METHODS OF USE” (Neurocrine Biosciences, Inc., priority 2020, published 2023).

Each molecule was assayed against T1, human M4 receptor (Homo sapiens, UniProt P08173) (assay: Radioligand ([3H]N-methylscopolamine) binding assay, membranes from CHO cells expressing human M4 receptor). Conditions: Ki against human M4 receptor; membranes from CHO cells; tritiated N-methylscopolamine 1.5 nM; read-out: K.
T1 construct: expressed in transfected cells; host or cells: CHO cells
T1 sequence (P08173 1-479): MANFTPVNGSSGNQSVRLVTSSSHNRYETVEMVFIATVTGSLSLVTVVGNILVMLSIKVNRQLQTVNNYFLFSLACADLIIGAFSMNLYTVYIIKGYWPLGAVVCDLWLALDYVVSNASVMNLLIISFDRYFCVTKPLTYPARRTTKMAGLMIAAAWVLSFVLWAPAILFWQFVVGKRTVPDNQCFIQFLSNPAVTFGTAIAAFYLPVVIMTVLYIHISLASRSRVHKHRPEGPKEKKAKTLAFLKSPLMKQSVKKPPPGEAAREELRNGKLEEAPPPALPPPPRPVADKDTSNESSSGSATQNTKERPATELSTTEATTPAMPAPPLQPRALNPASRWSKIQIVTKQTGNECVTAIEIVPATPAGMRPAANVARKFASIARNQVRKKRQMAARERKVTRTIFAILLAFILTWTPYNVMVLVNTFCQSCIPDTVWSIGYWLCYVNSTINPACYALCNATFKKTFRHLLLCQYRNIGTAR
Method in brief: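 Ki values derive from displacement of tritiated N-methylscopolamine (1.5 nM) from human M4 receptor in CHO membranes. Membranes, radioligand and twelve-point compound series were incubated together at 37 °C for 90 minutes in pH 7.4 HEPES/NaCl/MgCl2/EDTA buffer. Rapid vacuum filtration over polyethylenimine-pretreated filters was followed by radioactivity counting.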

Row | SMILES | Ki
1 | C[C@@H]1CN(c2ncc(C(F)(F)F)cn2)C[C@H](C)N1C(=O)NC1CC2(C1)CN(Cc1ccc(C(F)(F)F)cc1)C2 [Compound 323, (2R,6S)-2,6-dimethyl-N-(2-{[4-(trifluoromethyl)phen-yl]methyl}-2-aza-spiro[3.3]heptan-6-yl)-4-[5-(trifluoromethyl)pyrimidin-2-yl]piperazine-1-carboxamide] | 10 to 100 nM
2 | C[C@@H]1CN(c2cncc(C(F)(F)F)n2)[C@@H](C)CN1C(=O)OC1CC2(C1)CN(Cc1ccccc1)C2 [Compound 194, 2-benzyl-2-azaspiro[3.3]heptan-6-yl (2R,5S)-2,5-dimethyl-4-[6-(trifluoromethyl)pyrazin-2-yl]piperazine-1-carboxylate] | 100 to 1000 nM
3 | C[C@@H]1CN(c2nc3cc(F)ccc3o2)[C@@H](C)CN1C(=O)OC1CC2(C1)CN(Cc1ccccc1)C2 [Compound 443, 2-benzyl-2-azaspiro[3.3]heptan-6-yl (2R,5S)-4-(5-fluoro-1,3-benzoxazol-2-yl)-2,5-dimethylpiperazine-1-carboxylate] | 10 to 100 nM
4 | O=C(OC1CC2(C1)CN(Cc1ccccc1)C2)N1CC2COCC(C1)N2c1cnc(C(F)(F)F)cn1 [Compound 496, 2-benzyl-2-azaspiro[3.3]heptan-6-yl 9-[5-(trifluoromethyl)pyrazin-2-yl]-3-oxa-7,9-diazabicyclo[3.3.1]nonane-7-carboxylate] | 100 to 1000 nM
5 | C[C@@H]1CN(c2ncc(C(F)(F)F)cn2)C[C@H](C)N1C(=O)NC1CC2(C1)CN(Cc1ccccc1O)C2 [Compound 337, (2R,6S)-N-{2-[(2-hydroxyphenyl)methyl]-2-azaspiro[3.3]heptan-6-yl}-2,6-dimethyl-4-[5-(trifluoromethyl)pyrimidin-2-yl]piperazine-1-carboxamide] | 10 to 100 nM
6 | C[C@@H]1CN(c2cnc3ccccc3n2)C[C@H](C)N1C(=O)OC1CC2(C1)CN(Cc1ccc(F)cc1)C2 [Compound 391, 2-[(4-fluorophenyl)methyl]-2-azaspiro[3.3]heptan-6-yl (2R,6S)-2,6-dimethyl-4-(quinoxalin-2-yl)piperazine-1-carboxylate] | 10 to 100 nM
7 | C[C@@H]1CN(c2ncc(C(F)(F)F)cn2)[C@@H](C)CN1C(=O)OC1CC2(C1)CN(Cc1ccccc1)C2 [Compound 136, 2-Benzyl-2-azaspiro[3.3]heptan-6-yl (2R,5S)-2,5-dimethyl-4-[5-(trifluoromethyl)pyrimidin-2-yl]piperazine-1-carboxylate] | < 10 nM
8 | C[C@@H]1CN(c2nc3ccc(F)cc3s2)C[C@@H](C)N1C(=O)OC1CC2(C1)CN(Cc1ccc(C(N)=O)cc1)C2 [Compound 402, 2-[(4-carbamoylphenyl)methyl]-2-azaspiro[3.3]heptan-6-yl (2R,6R)-4-(6-fluoro-1,3-benzothiazol-2-yl)-2,6-dimethylpiperazine-1-carboxylate] | 10 to 100 nM
9 | C[C@@H]1CN(c2ncc(C(F)(F)F)cn2)C[C@@H](C)N1C(=O)OCC1CC2(C1)CN(Cc1ccccc1)C2 [Compound 144, {2-benzyl-2-azaspiro[3.3]heptan-6-yl}methyl (2R,6R)-2,6-dimethyl-4-[5-(trifluoromethyl)pyrimidin-2-yl]piperazine-1-carboxylate] | 10 to 100 nM
10 | C[C@@H]1CN(c2ncc(F)cn2)C[C@H](C)N1C(=O)OC1CC2(C1)CN(Cc1ccccc1)C2 [Compound 157, 2-benzyl-2-azaspiro[3.3]heptan-6-yl (2R,6S)-4-(5-fluoropyrimidin-2-yl)-2,6-dimethylpiperazine-1-carboxylate] | < 10 nM
11 | CCCc1cnc(N2C[C@@H](C)N(C(=O)OC3CC4(C3)CN(Cc3ccccc3)C4)[C@@H](C)C2)nc1 [Compound 504, 2-benzyl-2-azaspiro[3.3]heptan-6-yl (2R,6S)-2,6-dimethyl-4-(5-propylpyrimidin-2-yl)piperazine-1-carboxylate] | < 10 nM
12 | C[C@@H]1CN(c2cnc(C(F)(F)F)cn2)C[C@H](C)N1C(=O)OC1(C)CC2(CN(Cc3ccccc3)C2)C1 [Compound 353, 2-benzyl-6-methyl-2-azaspiro[3.3]heptan-6-yl (2R,6S)-2,6-dimethyl-4-[5-(trifluoromethyl)pyrazin-2-yl]piperazine-1-carboxylate] | 10 to 100 nM
13 | C[C@@H]1CN(c2ncc(C(F)(F)F)cn2)C[C@H](C)N1C(=O)NC1CC2(C1)CN(Cc1ccc(Cl)nc1)C2 [Compound 307, (2R,6S)-N-{2-[(6-chloropyridin-3-yl)methyl]-2-azaspiro[3.3]heptan-6-yl}-2,6-dimethyl-4-[5-(trifluoromethyl)pyrimidin-2-yl]piperazine-1-carboxamide] | 10 to 100 nM
14 | O=C(OC1CC2(C1)CN(Cc1ccccc1)C2)N1CCN(c2ccc(OC(F)(F)F)cc2)CC1 [Compound 108, 2-benzyl-2-azaspiro[3.3]heptan-6-yl 4-[4-(trifluoromethoxy)phenyl]piper-azine-1-carboxylate] | 100 to 1000 nM
15 | C[C@@H]1CN(c2cnc3cc(F)ccc3n2)[C@@H](C)CN1C(=O)OC1CC2(C1)CN(Cc1ccc(F)cc1)C2 [Compound 397, 2-[(4-fluorophenyl)methyl]-2-azaspiro[3.3]heptan-6-yl (2R,5S)-4-(6-fluoroquinoxalin-2-yl)-2,5-dimethylpiperazin-1-carboxylate] | 10 to 100 nM
16 | C[C@@H]1CN(c2nc3ccc(C(F)(F)F)cc3s2)[C@@H](C)CN1C(=O)OC1CC2(C1)CN(Cc1ccc(F)cc1)C2 [Compound 386, 2-[(4-fluorophenyl)methyl]-2-azaspiro[3.3]heptan-6-yl (2R,5S)-2,5-dimethyl-4-[6-(trifluoromethyl)-1,3-benzothiazol-2-yl]piperazine-1-carboxylate] | < 10 nM
17 | Cc1nc(C#N)cnc1N1C[C@@H](C)N(C(=O)OC2CC3(C2)CN(Cc2ccccc2)C3)[C@@H](C)C1 [Compound 181, 2-benzyl-2-azaspiro[3.3]heptan-6-yl (2R,6S)-4-(5-cyano-3-methylpyrazin-2-yl)-2,6-dimethylpiperazine-1-carboxylate] | 100 to 1000 nM

Results, then the molecule that gave them:

Row | Ki | SMILES
18 | < 10 nM | C[C@@H]1CN(c2nc3ccc(C(F)(F)F)cc3s2)C[C@H](C)N1C(=O)OC1CC2(C1)CN(Cc1ccncc1)C2 [Compound 416, 2-(pyridin-4-ylmethyl)-2-azaspiro[3.3]heptan-6-yl (2R,6)S-2,6-dimethyl-4-[6-(trifluoromethyl)-1,3-benzothiazol-2-yl]piperazine-1-carboxylate]
19 | 10 to 100 nM | COc1ccc2nc(N3C[C@@H](C)N(C(=O)OC4CC5(C4)CN(Cc4ccc(F)cc4)C5)[C@@H](C)C3)cnc2c1 [Compound 395, 2-[(4-fluorophenyl)methyl]-2-azaspiro[3.3]heptan-6-yl (2R,6S)-4-(6-methoxyquinoxalin-2-yl)-2,6-dimethylpiperazine-1-carboxylate]
20 | 10 to 100 nM | C[C@@H]1CN(c2cnc3cc(C(F)(F)F)ccc3n2)C[C@H](C)N1C(=O)NC1CC2(C1)CN(Cc1ccccc1)C2 [Compound 235, (2R,6S)-N-{2-benzyl-2-azaspiro[3.3]heptan-6-yl}-2,6-dimethyl-4-[6-(trifluoromethyl)quinoxalin-2-yl]piperazine-1-carboxamide]
21 | 10 to 100 nM | C[C@@H]1CN(c2ncc(C#N)cn2)[C@@H](C)CN1C(=O)OC1CC2(C1)CN(Cc1ccc(F)cc1)C2 [Compound 473, 2-[(4-fluorophenyl)methyl]-2-azaspiro[3.3]heptan-6-yl (2R,5S)-4-(5-cyanopyrimidin-2-yl)-2,5-dimethylpiperazine-1-carboxylate]
22 | 10 to 100 nM | C[C@@H]1CN(c2nc3ncc(C(F)(F)F)cc3s2)C[C@H](C)N1C(=O)OC1CC2(C1)CN(Cc1ccccc1)C2 [Compound 431, 2-benzyl-2-azaspiro[3.3]heptan-6-yl (2R,6S)-2,6-dimethyl-4-[6-(trifluoromethyl)-[1,3]thiazolo[4,5-b]pyridin-2-yl]piperazine-1-carboxylate]
23 | < 10 nM | CC(C)c1cnc(N2C[C@@H](C)N(C(=O)OC3CC4(C3)CN(Cc3ccccc3)C4)[C@@H](C)C2)nc1 [Compound 505, 2-benzyl-2-azaspiro[3.3]heptan-6-yl (2R,6S)-2,6-dimethyl-4-[5-(rpopan-2-yl)pyrimidin-2-yl]piperazine-1-carboxylate]
24 | < 10 nM | CC(c1ccccc1)N1CC2(CC(NC(=O)N3[C@H](C)CN(c4ncc(C(F)(F)F)cn4)C[C@@H]3C)C2)C1 (stereo partly drawn) [Compound 334, (2R,6S)-2,6-dimethyl-N-[2-(1-phenylethyl)-2-azaspiro[3.3]heptan-6-yl]-4-[5-(trifluoromethyl)pyrimidin-2-yl]piperazine-1-carboxamide]
25 | 10 to 100 nM | C[C@@H]1CN(c2ncc(C#N)cn2)[C@@H](C)CN1C(=O)NC1CC2(C1)CN(Cc1ccccc1)C2 [Compound 26, (2R,5S)-N-{2-benzyl-2-azaspiro[3.3]heptan-6-yl}-4-(5-cyanopyrimidin-2-yl)-2,5-dimethylpiperazine-1-carboxamide]
26 | < 10 nM | C[C@@H]1CN(c2cnc3cc(C(F)(F)F)ccc3n2)[C@@H](C)CN1C(=O)NC1CC2(C1)CN(Cc1ccccc1)C2 [Compound 237, (2R,5S)-N-{2-benzyl-2-azaspiro[3.3]heptan-6-yl}-2,5-dimethyl-4-[6-(trifluoromethyl)quinoxalin-2-yl]piperazine-1-carboxamide]
